Holding throughout (type): cell-based
For experiment [1], the target named is 5-hydroxytryptamine receptor 2A (Homo sapiens, UniProt P28223). Description: Antagonist activity at recombinant human 5-HT2A expressed in human U2OS cells by pathhunter beta-arrestin assay.
Experiment [2] concerns the target T1, 5-hydroxytryptamine receptor 2C (Homo sapiens, UniProt P28335).
T1 sequence (P28335 whole entry): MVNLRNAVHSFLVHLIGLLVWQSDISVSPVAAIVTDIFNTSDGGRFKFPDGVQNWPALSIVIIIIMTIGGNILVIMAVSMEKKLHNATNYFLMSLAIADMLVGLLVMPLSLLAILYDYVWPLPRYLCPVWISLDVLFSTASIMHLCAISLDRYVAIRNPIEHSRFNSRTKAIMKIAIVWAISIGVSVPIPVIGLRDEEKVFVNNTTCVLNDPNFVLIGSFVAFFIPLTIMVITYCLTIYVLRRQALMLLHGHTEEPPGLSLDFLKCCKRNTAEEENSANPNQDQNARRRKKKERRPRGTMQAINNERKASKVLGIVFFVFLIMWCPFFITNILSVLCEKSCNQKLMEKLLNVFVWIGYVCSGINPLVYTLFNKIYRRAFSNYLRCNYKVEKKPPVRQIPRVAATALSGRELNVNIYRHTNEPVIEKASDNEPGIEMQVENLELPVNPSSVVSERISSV
Description: Antagonist activity at recombinant human 5-HT2C expressed in human U2OS cells by pathhunter beta-arrestin assay.

Experiment [3] addresses T2, 5-hydroxytryptamine receptor 1A (Homo sapiens, UniProt P08908).
T2 sequence (P08908 whole entry): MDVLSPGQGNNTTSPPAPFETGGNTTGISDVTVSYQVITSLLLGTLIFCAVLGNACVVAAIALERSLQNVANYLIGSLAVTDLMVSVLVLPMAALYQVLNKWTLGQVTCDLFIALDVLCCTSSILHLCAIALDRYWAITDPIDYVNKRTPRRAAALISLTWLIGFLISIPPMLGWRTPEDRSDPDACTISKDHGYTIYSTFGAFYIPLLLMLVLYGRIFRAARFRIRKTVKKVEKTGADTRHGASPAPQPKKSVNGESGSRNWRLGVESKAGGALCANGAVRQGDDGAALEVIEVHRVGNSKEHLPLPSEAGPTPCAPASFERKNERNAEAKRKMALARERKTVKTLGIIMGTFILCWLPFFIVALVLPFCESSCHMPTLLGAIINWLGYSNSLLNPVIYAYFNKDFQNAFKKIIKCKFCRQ
As to the kind of experiment: Partial agonist activity at recombinant human 5-HT1A expressed in CHO-K1 cells by pathhunter beta-arrestin assay.

One may read the IC50 as the concentration that gives 50% inhibition. One may read the EC50 as the concentration that produces a half-maximal response.

Structures are written as SMILES. Counter-ions that a name gives are not always drawn. Some results are limits rather than exact numbers.

5-hydroxytryptamine receptor 2A, sequence (P28223 whole entry): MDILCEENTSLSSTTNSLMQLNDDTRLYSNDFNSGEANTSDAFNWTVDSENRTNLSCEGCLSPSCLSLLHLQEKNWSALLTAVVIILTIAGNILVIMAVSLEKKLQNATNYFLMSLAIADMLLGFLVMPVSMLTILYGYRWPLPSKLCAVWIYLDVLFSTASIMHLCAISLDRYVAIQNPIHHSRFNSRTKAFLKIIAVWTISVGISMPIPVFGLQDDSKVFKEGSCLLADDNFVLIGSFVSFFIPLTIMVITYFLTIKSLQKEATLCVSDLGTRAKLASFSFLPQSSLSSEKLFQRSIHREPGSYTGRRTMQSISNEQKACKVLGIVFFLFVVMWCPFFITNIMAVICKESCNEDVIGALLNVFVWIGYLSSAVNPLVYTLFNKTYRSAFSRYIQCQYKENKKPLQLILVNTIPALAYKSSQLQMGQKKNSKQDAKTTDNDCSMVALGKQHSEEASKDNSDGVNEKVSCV

For the molecule `S=C(NCCN1CCN(c2ncccn2)CC1)C12CC3CC(CC(C3)C1)C2`, the IC50 was 62.3 nM in experiment [1] and over 3330 nM in experiment [2].
With `c1ccc(CS/C(=N/CC[N+]2(Cc3ccccc3)CCN(c3ncccn3)CC2)C23CC4CC(CC(C4)C2)C3)cc1`, in experiment [1], the IC50 is over 10000 nM.
With `O=C(NCCN1CCN(c2ncccn2)CC1)C12CC3CC(CC(C3)C1)C2` [ADATANSERIN HYDROCHLORIDE], the values for the IC50 in experiment [1] and in experiment [2] were 33.7 nM and 1260 nM, respectively. Also, in experiment [3], the EC50 was 2.1 nM.
On to `CS/C(=N/CC[N+]1(C)CCN(c2ncccn2)CC1)C12CC3CC(CC(C3)C1)C2`, for which the IC50 in experiment [1] was over 10000 nM. Besides, the EC50 in experiment [3] is over 10000 nM.
With `Cc1cc2c(cc1Cl)N(C(=O)Nc1ccc(Oc3cccnc3C)nc1)CC2` [SB-242084], the IC50 in experiment [2] worked out at 0.33 nM.

For the origin of these results see ChEMBL document CHEMBL4622953, “Synthesis and biological evaluation of thioadatanserin and its dialkylated products as partial 5-HTR1A agonists and 5-HTR2A antagonists for potential use in depression and anxiety disorders” (Bioorg Med Chem Lett, 2020).
